Earlier results in patent US20160008334A1, “Preparations for the Treatment of Sleep-Related Respiratory Disorders” (priority 2013, published 2016).

Conditions: compared with the barbiturate phenobarbital; one study (drugbank.ca DB00366)

**Q.** For CN(C)CCOC(C)(c1ccccc1)c1ccccn1 (stereo not shown) [doxylamine succinate], which “effectiveness for use as a sedative” value is on record?
**A.** more effective than the barbiturate phenobarbital
